Experimental data published in patent US4217305A, “Phenylethanolamine derivatives” (Yamanouchi Pharmaceutical Co., Ltd., priority 1977, dated 1980).

Tests used:
Format in all cases: in vivo
α-Adrenergic = α-Adrenergic blocking action: antagonism of hypertensive response to phenylephrine in anesthetized rats; details: Rattus norvegicus, iv; urethane anesthetized, pentolinium treated rats; phenylephrine 10 μg/Kg i.v.; read-out: α-blocking (Rat) ED50
Procedure: A. α-Adrenergic blocking action: (a) The blood pressure was measured in rats anesthetized with urethane and treated with pentolinium.

β-Adrenergic = β-Adrenergic blocking action: antagonism of isoproterenol induced tachycardia in rats; details: Rattus norvegicus, iv; reserpine pretreated, pentobarbital anesthetized rats; isoproterenol 0.1 μg/Kg iv.
Procedure: Bilateral vagotomy was performed at the neck. The effects of the test samples to antagonize the isoproterenol (0.1 μg/Kg iv.) induced tachycardia were measured and the results were shown in Table I.

[1] = test system: spontaneously hypertensive rats; experiment: Antihypertensive effects in spontaneously hypertensive rats, oral administration; details: at 10 mg/Kg p.o.; mean ± S.E. of 5 to 10 animals; measured indirectly from the tail
Procedure: B. Antihypertensive effects in spontaneously hypertensive rats: Oral administration: The systolic blood pressure was measured indirectly from the tail using a programmed electro-sphygmanometer (Nacro Bio-Systems Inc., PE-300) on spontaneously hypertensive rats having a systolic blood pressure of higher than 150 mmHg, the result being shown in Table II.

Question: What does the source list for COc1ccccc1OCC(C)NCC(O)c1ccc(O)c(S(N)(=O)=O)c1.Cl (stereo not drawn) [Example 43, 2-Hydroxy-5-{1-hydroxy-2-[2-(2-methoxyphenoxy)-1-methylethylamino]ethyl}benzenesulfonamide hydrochloride]?
Answer: ED50 (α-Adrenergic): 0.0091 mg/kg; ED50 (β-Adrenergic): 0.53 mg/kg; antihypertensive effect: change in systolic blood pressure [1]: -33 ± 6.9 mmHg

Question: Which results are given for COc1ccccc1OCCNCC(O)c1ccc(C)c(S(N)(=O)=O)c1.Cl (stereo not drawn) [Example 47, 5-{1-Hydroxy-2-[2-(2-methoxyphenoxy)ethylamino]ethyl}-2-methylbenzenesulfonamide hydrochloride]?
Answer: ED50 (α-Adrenergic): 0.034 mg/kg; ED50 (β-Adrenergic): 0.16 mg/kg; antihypertensive effect: change in systolic blood pressure [1]: -35 ± 6.4 mmHg
